Measured values published in article PMC7781311 (bioRxiv, 2021).
Like-named read-outs stand apart in the source and are kept apart here.

Key:
[1] = tested on: SARS-CoV-2-S pseudotyped particles (PP); assay type: cell-based; details: Calu-3 cells
Calu3 cells = details: same protocol without PP, ATP content
in vitro = details: human
TMPRSS2 = TMPRSS2 (Homo sapiens, UniProt O15393); test: TMPRSS2 biochemical; details: enzyme assay, maximal efficacy
TMPRSS2, sequence (O15393 whole entry): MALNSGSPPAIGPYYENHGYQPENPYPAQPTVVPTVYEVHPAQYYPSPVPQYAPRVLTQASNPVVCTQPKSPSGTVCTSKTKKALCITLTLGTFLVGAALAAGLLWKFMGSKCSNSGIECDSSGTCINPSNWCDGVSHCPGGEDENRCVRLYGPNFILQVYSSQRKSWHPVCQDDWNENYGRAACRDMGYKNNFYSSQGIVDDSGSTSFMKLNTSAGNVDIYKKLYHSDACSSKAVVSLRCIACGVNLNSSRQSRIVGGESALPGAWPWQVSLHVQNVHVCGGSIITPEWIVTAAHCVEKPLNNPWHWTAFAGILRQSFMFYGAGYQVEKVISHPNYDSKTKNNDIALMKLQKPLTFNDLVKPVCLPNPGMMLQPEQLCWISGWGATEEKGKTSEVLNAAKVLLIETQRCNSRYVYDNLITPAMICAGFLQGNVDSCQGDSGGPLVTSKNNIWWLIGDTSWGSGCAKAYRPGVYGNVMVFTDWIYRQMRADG

SMILES | Activity in the PP entry assay (in words) ([1]; listed as Gabexate) | Activity in the PP entry assay (in words) ([1]; listed as gabexate) | Calu3 cytotoxicity Efficacy (Calu3 cells) [%] | Activity in the PP entry assay (in words) [1] | IC50 (in vitro) [µM] | TMPMSS2 Efficacy (TMPRSS2) [%]
CCOC(=O)c1ccc(OC(=O)CCCCCNC(=N)N)cc1 [NCGC00025297, Gabexate] | inactive | did not exhibit activity | 0 | – | – | –
N=C(N)c1ccc2cc(OC(=O)c3ccc(N=C(N)N)cc3)ccc2c1 [NCGC00160398, Nafamostat] | – | – | 38.74 | high potency and efficacy | 15.8 | –
CN(C)C(=O)COC(=O)Cc1ccc(OC(=O)c2ccc(NC(=N)N)cc2)cc1 [NCGC00167526, Camostat] | – | – | 0 | high potency and efficacy | – | 100
COC(=O)[C@H](Cc1cccc(C(=N)N)c1)[C@@H](C)NC(=O)c1ccc(-c2cc[n+]([O-])cc2)cc1 [NCGC00378763, Otamixaban] | – | – | 0 | efficient activity | – | –
C=Cc1cc(C(=O)Nc2ccc(C(=N)N)cc2)c(-c2ccc(C(=O)NCC3CC3)nc2C(=O)O)cc1OC [NCGC00522636, Avoralstat] | – | – | – | comparable inhibition activity to camostat | – | –
